Laboratory results as given in patent US6632805B1, “Methods for using water-stabilized organosilanes” (Emory University, priority 1996, dated 2003).

Legend:
[1] = Solubility in water and other solvents
[2] = Stability in water judged by appearance of the preparation (clear/hazy)

Structure (SMILES)	Appearance after addition to water containing pentaerythritol ([1]; water containing pentaerythritol, after standing overnight)	Solubility in water ([1]; water, no stabilizer)	Stability (appearance of the preparation) ([2]; initial pH 1.15, after 1 wk.)	Stability (appearance of the preparation) ([2]; initial pH 2.0, after 1 mo.)	Stability (appearance of the preparation) ([2]; initial pH 2.0, after 1 wk.)	Stability (appearance of the preparation) ([2]; initial pH 5.7, after 1 mo.)	Stability (appearance of the preparation) ([2]; initial pH 5.7, after 1 wk.)	Stability (appearance of the preparation) ([2]; initial pH 6.5, after 1 mo.)	Stability (appearance of the preparation) ([2]; initial pH 6.5, after 1 wk.)	Stability (appearance of the preparation) ([2]; initial pH 8.5, after 1 wk.)
CO[Si](CCCCl)(OC)OC [Chloropropyl trimethoxysilane]	clear solution	insoluble	–	–	–	–	–	–	–	–
CCCCCCCCCCCCCCCCCC[N+](C)(C)CCC[Si](OC)(OC)OC.[Cl-] [none]	–	–	hazy	hazy	clear	hazy	clear	hazy	clear	hazy/gel
